Source: publication PMC9994683 (PLOS ONE, 2023)

How the values were obtained:
[1] = test system: Escherichia coli (ATCC 25922); test: Disc-diffusion assay; format: cell-based
[2] = test system: Listeria monocytogenes (ATCC 35152); test: Disc-diffusion assay; format: cell-based; details: ATCC35152, extracts 50 μg/mL, vancomycin 30 μg/disc, ciprofloxacin 5 μg/disc, read-out: zone of inhibition (diameter), Disc, L. mono.
Description: (§1) The bactericidalpotential of 50μg/mL of A. indica L. and M. azedarach L. leaves extracts were evaluated using the disc and well-diffusion assays by the formation of inhibition zone. Then, the broth-microdilution approach was used to estimate the values of minimum inhibitory concentration (MIC).
(§2) The antibacterial actions of extracts were examined against Escherichia coli (ATCC 25922), Salmonella enterica (ATCC 14028), Pseudomonas aeruginosa (ATCC 10145), representing Gram-negative (GN) bacteria; Listeria monocytogenes (ATCC 35152), Staphylococcus aureus (ATCC 43300) and Enterococcus faecalis (ATCC 43845), representing Gram-positive (GP) bacteria. Each bacterial culture stock preserved in -80°C was injected into a tube containing 20 ml of Trypticase soya broth (TSB). Then, all inoculated tubes were incubated for 24 h at 37°C. Dilution of the cultures with Mueller–Hinton Broth (MHB) was performed corresponding to ten folds serial dilution upto 10^-8CFU/ml of the bacterial culture.
(§3) 2.6.2.1. Disc-diffusion method. The technique was conducted based upon the Clinical and Laboratory Standards Institute (CLSI) (M02-A11). The prepared bacterial inoculum suspension was briefly swabbed onto MHA medium with a sterile cotton swab. Next, sterile discs made of filter paper (6 mm) (Maidstone, UK) were saturated with 50μg/mLof the tested samples. Both Ciprofloxacin (5μg/disc) and Vancomycin (30μg/disc) were used as controls. The saturated discs were lightly pushed on the top surfaces MHA and incubated with bacteria overnight at 37°C. A produced zone of inhibition (ZOI) was measured and given in millimeters (mm).

[3] = test system: Salmonella enterica (ATCC 14028); test: Disc-diffusion assay; format: cell-based; details: ATCC14028, extracts 50 μg/mL, vancomycin 30 μg/disc, ciprofloxacin 5 μg/disc, read-out: zone of inhibition (diameter), Disc, S. enterica
Description: as §1, §2, §3

[4] = test system: Pseudomonas aeruginosa (ATCC 10145); test: Disc-diffusion assay; format: cell-based
[5] = test system: Staphylococcus aureus (ATCC 43300); test: Disc-diffusion assay; format: cell-based
[6] = test system: Enterococcus faecalis (ATCC 43845); test: Disc-diffusion assay; format: cell-based
[7] = test system: Escherichia coli (ATCC 25922); test: Well-diffusion assay; format: cell-based; details: extracts 50 μg/mL, 50 μL per well, within 24 h
[8] = test system: Salmonella enterica (ATCC 14028); test: Well-diffusion assay; format: cell-based; details: extracts 50 μg/mL, 50 μL per well, within 24 h
Description: as §1, §2
2.6.2.2. Well-diffusion method. Using sanitized needle tips, a 6 mm-diameter hole was drilled. Afterward when, a sterilized cotton swab was employed to smear the inoculum standard solution of the examined microbes onto the medium. The specimen was then transferred to each well in intervals of 50 μL. Two reference antibiotic drugs (vancomycin and ciprofloxacin) served as positive controls. […]

[9] = test system: Pseudomonas aeruginosa (ATCC 10145); test: Well-diffusion assay; format: cell-based; details: extracts 50 μg/mL, 50 μL per well, within 24 h
[10] = test system: Staphylococcus aureus (ATCC 43300); test: Well-diffusion assay; format: cell-based; details: extracts 50 μg/mL, 50 μL per well, within 24 h
[11] = test system: Listeria monocytogenes (ATCC 35152); test: Well-diffusion assay; format: cell-based; details: extracts 50 μg/mL, 50 μL per well, within 24 h
[12] = test system: Enterococcus faecalis (ATCC 43845); test: Well-diffusion assay; format: cell-based; details: extracts 50 μg/mL, 50 μL per well, within 24 h
Vero E6 cells = test: MTT cytotoxicity assay (CC50) in Vero E6 cells; format: cell-based, African green monkey; details: reference drug control
[13] = test system: hCoV-19/Egypt/NRC-3/2020 SARS-CoV-2 virus; test: Anti-SARS-CoV-2 activity (IC50), crystal violet assay in Vero-E6 cells; format: cell-based; details: SARS-CoV-2 in Vero E6 cells, reference drug control

`O=C(O)c1cn(C2CC2)c2cc(N3CCNCC3)c(F)cc2c1=O` [Cipro., ciprofloxacin] was tested, and the zone of inhibition at 5 µg/disc ([1]; ATCC25922, extracts 50 μg/mL, vancomycin 30 μg/disc, ciprofloxacin 5 μg/disc, read-out: zone of inhibition (diameter), Disc, E. coli) was 14 ± 0.28 mm, the zone of inhibition at 5 µg/disc [2] was 6 ± 0.25 mm and the zone of inhibition at 5 µg/disc [3] was 11 ± 0.15 mm. For the same compound, the zone of inhibition at 5 µg/disc ([4]; ATCC10145, extracts 50 μg/mL, vancomycin 30 μg/disc, ciprofloxacin 5 μg/disc, read-out: zone of inhibition (diameter), Disc, P. aeruginosa) was 9 ± 0.15 mm, the zone of inhibition at 5 µg/disc ([5]; ATCC43300, extracts 50 μg/mL, vancomycin 30 μg/disc, ciprofloxacin 5 μg/disc, read-out: zone of inhibition (diameter), Disc, S. aureus) was 8 ± 0.24 mm and the zone of inhibition at 5 µg/disc ([6]; ATCC43845, extracts 50 μg/mL, vancomycin 30 μg/disc, ciprofloxacin 5 μg/disc, read-out: zone of inhibition (diameter), Disc, E. faecalis) was 9 ± 0.19 mm. For the same compound, the “zone of inhibition (diameter), Well, E. coli” value [7] was 16 ±0.19 mm, the “zone of inhibition (diameter), Well, S. enterica” value [8] was 12 ±0.31 mm and the “zone of inhibition (diameter), Well, P. aeruginosa” value [9] was 11 ±0.31 mm. The “zone of inhibition (diameter), Well, S. aureus” value [10] was 10 ±0.29 mm, the “zone of inhibition (diameter), Well, L. mono.” value [11] was 8 ±0.18 mm and the “zone of inhibition (diameter), Well, E. faecalis” value [12] was 10 ±0.15 mm.
`CN[C@H](CC(C)C)C(=O)N[C@H]1C(=O)N[C@@H](CC(N)=O)C(=O)N[C@H]2C(=O)N[C@H]3C(=O)N[C@H](C(=O)N[C@H](C(=O)O)c4cc(O)cc(O)c4-c4cc3ccc4O)[C@H](O)c3ccc(c(Cl)c3)Oc3cc2cc(c3O[C@@H]2O[C@H](CO)[C@@H](O)[C@H](O)[C@H]2O[C@H]2C[C@](C)(N)[C@H](O)[C@H](C)O2)Oc2ccc(cc2Cl)[C@H]1O` [Vanco., vancomycin] gave a zone of inhibition at 30 µg/disc ([1]; ATCC25922, read-out: zone of inhibition (diameter), Disc, E. coli) of 9 ± 0.11 mm, a zone of inhibition at 30 µg/disc [2] of 9 ± 0.43 mm and a zone of inhibition at 30 µg/disc [3] of 7 ± 0.21 mm. For the same compound, the zone of inhibition at 30 µg/disc ([4]; ATCC10145, read-out: zone of inhibition (diameter), Disc, P. aeruginosa) was 6 ± 0.21 mm, the zone of inhibition at 30 µg/disc ([5]; ATCC43300, read-out: zone of inhibition (diameter), Disc, S. aureus) was 12 ± 0.22 mm and the zone of inhibition at 30 µg/disc ([6]; ATCC43845, read-out: zone of inhibition (diameter), Disc, E. faecalis) was 11 ± 0.31 mm. For the same compound, the “zone of inhibition (diameter), Well, E. coli” value [7] was 10 ±0.23 mm, the “zone of inhibition (diameter), Well, S. enterica” value [8] was 9 ±0.24 mm and the “zone of inhibition (diameter), Well, P. aeruginosa” value [9] was 8 ±0.24 mm. For the same compound, the “zone of inhibition (diameter), Well, S. aureus” value [10] was 14 ±0.27 mm, the “zone of inhibition (diameter), Well, L. mono.” value [11] was 11 ±0.11 mm and the “zone of inhibition (diameter), Well, E. faecalis” value [12] was 13 ±0.23 mm.
`CCC(CC)COC(=O)[C@H](C)N[P@](=O)(OC[C@H]1O[C@@](C#N)(c2ccc3c(N)ncnn23)[C@H](O)[C@@H]1O)Oc1ccccc1` [remedesivir] gave a CC50 (Vero E6 cells) of 473 µM and an IC50 [13] of 6.72 µM.
